# Reference: patent publication EP4745134A1 (Jiangsu Yahong Meditech Co., Ltd., priority 2023, dated 2025)
# Molecular target: PRMT5-MTA (Homo sapiens, UniProt O14744)
# Experiment: Enzymatic inhibitory activity against PRMT5-MTA (AlphaScreen)
# Assay type: biochemical
# Details: read-out: IC50
# Method: The AlphaScreen method was used to detect the enzymatic inhibitory activity of the compounds against PRMT5-MTA. 1 x Methyltransferase assay buffer IV (signalchem) was prepared as a solution for diluting each component for the enzymatic reaction. PRMT5/[…] protein of a final concentration of 1 nM, […] (sigma) of a final concentration of 1 uM and S-(5'-adenosine)-L-methionine chloride dihydrochloride (sigma) of a final concentration of 2.5 uM were mixed, then incubated for 30 minutes at room temperature, and transferred to an OptiPlate-384 well plate (PerkinElmer) at a volume of 6 uL per well, for which no PRMT5/[…] protein was added to the control wells. The test compound was 3-fold serially diluted into 10 concentrations, starting from a concentration of 1000 nM, and the series of diluted compounds were added to all wells except the control wells in the well plate using Tecan D300e. The well plate was subjected to centrifugation for 1 minute at 1000 rpm in a centrifuge, and then incubated for 15 minutes at 23°C. Histone H4 substrate of a final concentration of 5 nM was added to the well plate at 4 uL per well, centrifuged for 1 minute at 1000 rpm in a centrifuge, then placed in an incubator at 23°C and reacted for 45 minutes. Anti-histone H4 (symmetrical dimethyl R3) antibody (Abcam) was incubated with 50 ug/mL of AlphaScreen Protein A Acceptor beads (PerkinElmer) for 10 minutes at room temperature beforehand, and then added to the well plate at a volume of 10 uL per well. The mixture was reacted for 1 hour at room temperature. 50 Ug/mL of AlphaScreen Streptavidin Donor beads (PerkinElmer) was added at 10 uL per well, and reacted for 1 hour at room temperature. The signal values were detected for the well plate through the Alpha method using an Envision multifunctional microplate-reader, and the IC50 values for inhibition of the compounds on PRMT5/MET50 enzyme activity were calculated in Xlfit 5.0 software. Table 1. IC50 values for inhibition of the compounds on PRMT5+MTA enzyme activity
# Chain of PRMT5-MTA (O14744 whole entry): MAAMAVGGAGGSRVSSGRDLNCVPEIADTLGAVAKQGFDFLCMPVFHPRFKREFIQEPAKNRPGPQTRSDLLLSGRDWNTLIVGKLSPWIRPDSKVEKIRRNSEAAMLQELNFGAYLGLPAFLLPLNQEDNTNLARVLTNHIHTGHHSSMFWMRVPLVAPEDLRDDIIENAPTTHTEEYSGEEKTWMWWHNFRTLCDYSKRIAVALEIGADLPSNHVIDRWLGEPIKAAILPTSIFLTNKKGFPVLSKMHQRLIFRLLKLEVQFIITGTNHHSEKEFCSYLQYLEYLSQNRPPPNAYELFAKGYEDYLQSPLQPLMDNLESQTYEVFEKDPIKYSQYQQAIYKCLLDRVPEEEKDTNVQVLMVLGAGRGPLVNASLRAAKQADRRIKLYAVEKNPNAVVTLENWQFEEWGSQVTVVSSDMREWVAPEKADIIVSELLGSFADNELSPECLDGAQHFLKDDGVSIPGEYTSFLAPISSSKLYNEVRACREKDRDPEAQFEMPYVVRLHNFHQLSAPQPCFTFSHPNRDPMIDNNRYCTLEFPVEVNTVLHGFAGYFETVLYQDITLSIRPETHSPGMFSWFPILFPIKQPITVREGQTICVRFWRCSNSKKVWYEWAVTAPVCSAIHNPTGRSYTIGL
# Chain of PRMT5-MTA (Q9BQA1 whole entry partner): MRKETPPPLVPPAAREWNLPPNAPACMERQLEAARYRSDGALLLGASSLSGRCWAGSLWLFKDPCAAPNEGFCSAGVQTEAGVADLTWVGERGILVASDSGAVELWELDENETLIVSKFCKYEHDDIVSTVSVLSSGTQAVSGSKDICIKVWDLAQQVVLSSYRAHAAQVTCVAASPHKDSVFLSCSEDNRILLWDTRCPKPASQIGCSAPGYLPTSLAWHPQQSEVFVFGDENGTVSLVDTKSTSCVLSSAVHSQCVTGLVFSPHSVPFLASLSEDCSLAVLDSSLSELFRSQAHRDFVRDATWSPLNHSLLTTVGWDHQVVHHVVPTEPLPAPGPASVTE
row,SMILES,IC50 [nM]
1,"Cc1cc2cc(C(=O)N(Cc3cnc(Br)cn3)N(C)c3ncccn3)ccc2nc1N [Example 282, 2-amino-N-((5-bromopyrazin-2-yl)methyl)-N',3-dimethyl-N'-(pyrimidin-2-yl)quinoline-6-carbohydrazide]",4.5
2,"Cc1cc2cc(C(=O)N(Cc3ccc(C4(O)COC4)cn3)N(C)c3ncccn3)ccc2nc1N [Example 285, 2-amino-N-((5-(3-hydroxyoxetan-3-yl)pyridin-2-yl)methyl)-N',3-dimethyl-N'-(pyrimidin-2-yl)quinoline-6-carbohydrazide]",2
3,"Cc1cc2cc(C(=O)N(Cc3ccc(C(C)(C)O)cn3)N(C)c3ncccn3)ccc2nc1N [Example 290, 2-amino-N-((5-(2-hydroxyprop-2-yl)pyridin-2-yl)methyl)-N',3-dimethyl-N'-(pyrimidin-2-yl)quinoline-6-carbohydrazide]",3.7
4,"Cc1cc2cc(C(=O)N(Cc3ccc(C(F)(F)F)cn3)N(C)c3ncc(P(C)(C)=O)cn3)ccc2nc1N [Example 296, 2-amino-N'-(5-(dimethylphosphoryl)pyrimidin-2-yl)-N',3-dimethyl-N-((5-(trifluoromethyl)pyridin-2-yl)methyl)quinoline-6-carbohydrazide]",1.3
5,"Cc1cc2cc(C(=O)N(Cc3ccc(P(C)(C)=O)cn3)N(C)c3ncccn3)ccc2nc1N [Example 297, 2-amino-N-((5-(dimethylphosphoryl)pyridin-2-yl)methyl)-N',3-dimethyl-N'-(pyrimidin-2-yl)quinoline-6-carbohydrazide]",6.4
6,"COc1cc2cc(C(=O)N(Cc3ccc(C(F)(F)F)cn3)N(C)c3ncccn3)ccc2nc1N [Example 319, 2-amino-3-methoxy-N'-methyl-N'-(pyrimidin-2-yl)-N-((5-(trifluoromethyl)pyridin-2-yl)methyl)quinoline-6-carbohydrazide]",4.7
7,"Nc1nc2ccc(C(=O)N(Cc3ccc(C(F)(F)F)cn3)N(c3ncccn3)C3CC3)cc2cc1CF [Example 323, 2-amino-N'-cyclopropyl-3-(fluoromethyl)-N'-(pyrimidin-2-yl)-N-((5-(trifluoromethyl)pyridin-2-yl)methyl)quinoline-6-carbohydrazide]",7.1
8,"COCc1cc2cc(C(=O)N(Cc3ccc(C(F)(F)F)cn3)N(C)c3ncccn3)ccc2nc1N [Example 326, 2-amino-3-(methoxymethyl)-N'-methyl-N'-(pyrimidin-2-yl)-N-((5-(trifluoromethyl)pyridin-2-yl)methyl)quinoline-6-carbohydrazide]",2
9,"CN(c1ncccn1)N(Cc1ccc(C(F)(F)F)cn1)C(=O)c1ccc2nc(N)c(C(F)(F)F)cc2c1 [Example 327, 2-amino-N'-methyl-N'-(pyrimidin-2-yl)-3-(trifluoromethyl)-N-((5-(trifluoromethyl)pyridin-2-yl)methyl)quinoline-6-carbohydrazide]",8.4
10,"Cc1cc2nc(N)c3cnn(C)c3c2cc1C(=O)N1CCCN1c1nccc2nccnc12 [Example 331, (4-amino-1,7-dimethyl-1H-pyrazolo[4,3-c]quinolin-8-yl)(2-(pyrido[3,4-b]pyrazin-5-yl)pyrazolidin-1-yl)methanone]",2.1
11,"Cc1cc2cc(C(=O)N3CC(C)CN3c3ncccc3F)c(F)cc2nc1N (centres unmarked) [Example 333, (2-amino-7-fluoro-3-methylquinolin-6-yl)(2-(3-fluoropyridin-2-yl)-4-methylpyrazolidin-1-yl)methanone]",7.7
12,"Cc1cc2nc(N)c3cnn(C)c3c2cc1C(=O)N1CC(C)CN1c1ncccc1OC(F)(F)F (centres unmarked) [Example 334, (4-amino-1,7-dimethyl-1H-pyrazolo[4,3-c]quinolin-8-yl)(4-methyl-2-(3-(trifluoromethoxy)pyridin-2-yl)pyrazolidin-1-yl)m ethanone]",9.2
13,"Cc1cc2nc(N)c3cnn(C)c3c2cc1C(=O)N1CCCN1c1ccncc1 [Example 336, (4-amino-1,7-dimethyl-1H-pyrazolo[4,3-c]quinolin-8-yl)(2-(pyridin-4-yl)pyrazolidin-1-yl)methanone]",2.9
14,"Cc1cc2cc(C(=O)N3CCCN3c3ccc(C(F)(F)F)cn3)ccc2nc1N [Example 337, (2-amino-3-methylquinolin-6-yl)(2-(5-(trifluoromethyl)pyridin-2-yl)pyrazolidin-1-yl)methanone]",59
15,"Cn1ncc2c(N)nc3ccc(C(=O)N4CCCN4c4ccc(C(F)(F)F)cn4)cc3c21 [Example 339, (4-amino-1-methyl-1H-pyrazolo[4,3-c]quinolin-8-yl)(2-(5-(trifluoromethyl)pyridin-2-yl)pyrazolidin-1-yl)methanone]",4.6
16,"Cc1cc2nc(N)c3cnn(C)c3c2cc1C(=O)N1CC(O)CN1c1ncccc1F (centres unmarked) [Example 356, (4-amino-1,7-dimethyl-1H-pyrazolo[4,3-c]quinolin-8-yl)(2-(3-fluoropyridin-2-yl)-4-hydroxypyrazolidin-1-yl)methanone]",3.7
17,"Cc1cc2nc(N)c3cnn(C)c3c2cc1C(=O)N1CC(C)CN1c1cccc(F)c1F (centres unmarked) [Example 363, (4-amino-1,7-dimethyl-1H-pyrazolo[4,3-c]quinolin-8-yl)(2-(2,3-difluorophenyl)-4-methylpyrazolidin-1-yl)methanone]",3.1
18,"Cc1cc2nc(N)c3cnn(C)c3c2cc1C(=O)N1CC(C)CN1c1ncc(C#N)cc1F (centres unmarked) [Example 371, 6-(2-(4-amino-1,7-dimethyl-1H-pyrazolo [4,3-c]quinoline-8-formyl)-4-methylpyrazolidin-1-yl)-5-fluoronicotinonitrile]",5.5
19,"Cc1cc2nc(N)c3cnn(C)c3c2cc1C(=O)N1C(C)CCN1c1ncccn1 (centres unmarked) [Example 373, (4-amino-1,7-dimethyl-1H-pyrazolo[4,3-c]quinolin-8-yl)(5-methyl-2-(pyrimidin-2-yl)pyrazolidin-1-yl)methanone]",7.5
20,"Cc1cc2nc(N)c3cnn(C)c3c2cc1C(=O)N1CC(C)CN1c1ncccc1C (centres unmarked) [Example 380, (4-amino-1,7-dimethyl-1H-pyrazolo[4,3-c]quinolin-8-yl)(4-methyl-2-(3-methylpyridin-2-yl)pyrazolidin-1-yl)methanone]",3.4
21,"Cc1cc2nc(N)c3cnn(C)c3c2cc1C(=O)N1CC(C)CN1c1ccc(C(F)(F)F)cn1 (centres unmarked) [Example 389, (4-amino-1,7-dimethyl-1H-pyrazolo[4,3-c]quinolin-8-yl)(4-methyl-2-(5-(trifluoromethyl)pyridin-2-yl)pyrazolidin-1-yl)met hanone]",6.3
22,"Cc1cc2nc(N)c3cnn(C)c3c2cc1C(=O)N1CC(C)CN1c1ncccc1C(F)(F)F (centres unmarked) [Example 399, (4-amino-1,7-dimethyl-1H-pyrazolo[4,3-c]quinolin-8-yl)(4-methyl-2-(3-(trifluoromethyl)pyridin-2-yl)pyrazolidin-1-yl)met hanone]",6.2
23,"Cc1cc2nc(N)c3cnn(C)c3c2cc1C(=O)N1CC(c2ccccc2)CN1c1ncccc1F (centres unmarked) [Example 409, (4-amino-1,7-dimethyl-1H-pyrazolo[4,3-c]quinolin-8-yl)(2-(3-fluoropyridin-2-yl)-4-phenylpyrazolidin-1-yl)methanone]",3.1
24,"COC1CN(C(=O)c2cc3c(cc2Cl)nc(N)c2cnn(C)c23)N(c2cc(F)ccc2F)C1 (centres unmarked) [Example 440, (4-amino-7-chloro-1-methyl-1H-pyrazolo [4,3-c]quinolin-8-yl)(2-(2,5-difluorophenyl)-4-methoxypyrazolidin-1-yl)methanone]",3.7
25,"Cc1cc2nc(N)c3cnn(C)c3c2cc1C(=O)N1CCC(=O)N1c1ccc(C(F)(F)F)cn1 [Example 463, 1-(4-amino-1,7-dimethyl-1H-pyrazolo[4,3-c]quinoline-8-carbonyl)-2-(5-(trifluoromethyl)pyridin-2-yl)pyrazolidin-3-one]",1.3
26,"CCc1cc2nc(N)c3cnn(C)c3c2cc1C(=O)N1CCCN1c1ccc(C(F)(F)F)cn1 [Example 496, (4-amino-7-ethyl-1-methyl-1H-pyrazolo[4,3-c]quinolin-8-yl)(2-(5-(trifluoromethyl)pyridin-2-yl)pyrazolidin-1-yl)methanone]",3.4
27,"Cn1ncc2c(N)nc3cc(C4CC4)c(C(=O)N4CCCN4c4ccc(C(F)(F)F)cn4)cc3c21 [Example 497, (4-amino-7-cyclopropyl-1-methyl-1H-pyr azolo[4,3-c]quinolin-8-yl)(2-(5-(trifluoromethyl)pyridin-2-yl)pyrazolidin-1-yl)met hanone]",5.1
28,"COc1cc2nc(N)c3cnn(C)c3c2cc1C(=O)N1CCCN1c1ncccc1F [Example 498, (4-amino-7-methoxy-1-methyl-1H-pyraz olo[4,3-c]quinolin-8-yl)(2-(3-fluoropyridin-2-yl)pyrazolidin-1-yl)methanone]",5
29,"CC(C)c1cc2nc(N)c3cnn(C)c3c2cc1C(=O)N1CCCN1c1ccc(C(F)(F)F)cn1 [Example 500, (4-amino-7-isopropyl-1-methyl-1H-pyraz olo[4,3-c]quinolin-8-yl)(2-(5-(trifluoromethyl)pyridin-2-yl)pyrazolidin-1-yl)metha none]",41
